# Literature values as cited in patent US20080045551A1, “PHARMACEUTICAL COMBINATION COMPRISING AN ADENOSINE A1 ANTAGONIST AND A RADIOCONTRAST MEDIA” (priority 2006, published 2008).
# Test system: radiocontrast media induced nephropathy
# Conditions: intensive care patients; Greiner 2005
smiles,measurement,value
Cn1c(=O)c2[nH]cnc2n(C)c1=O [theophylline],prophylaxis of radiocontrast media induced nephropathy (CIN),prophylactic properties
